We go through 1 molecule from US9851354B2, “Methods of treating fragile X syndrome and related disorders” (Alcobra Ltd., priority 2013, dated 2017).

“Also recorded” adds a separate entry of the source.

Test [1] deals with primary hippocampal neurons from Fmr1 knockout mice. Nature of the test: Dendritic filopodia density and maturation in vitro. The note with it: neurons from Fmr1 KO mice, 300 μM, five hours. Type of test: cell-based, mouse. On the procedure:
(§1) In all cases, saline was used as a vehicle (control).
Hippocampal cell cultures were prepared from wild type and Fmr1 KO fetal mice at embryonic day of gestation 17.5 (E17.5). Mice were killed by cervical dislocation and dissociated hippocampal cells were plated in 15 mm multi well vessels (Falcon Primaria). After 5 d in vitro, green fluorescent protein (GFP) was transfected to facilitate monitoring dendritic spine morphogenesis after drug treatment (Ethell and Yamaguchi, 1999; Ethell et al., 2001, Henkemeyer et al., 2003). Dendritic spines were formed at around 16 days in vitro (DIV).
Filopodia density of GFP transfected neurons was quantified by performing Sholl analyses of stacked Zeiss confocal generated images (40× objective, stack of 20×0.2 μm). With Metamorph software, concentric equally spaced circles (every 20 μm) were drawn around the cell soma of each neuron and subsequently, the amount of filopodia was counted per circle. Averages of counts were compared with unpaired two-tailed Student's T-tests.
Spine maturity of GFP transfected neurons was analyzed with Metamorph software (Molecular Devices, Sunnyvale, Calif.). Two distal dendritic segments of 70 100 μm were chosen per neuron for spine morphometric analysis. For each spine, the length and the width were measured. The length was defined as the distance from the base to the tip of the protrusion; whereas width was defined as the maximum distance perpendicular to the long axis of the spine. Measurements were compared with unpaired two tailed Student's T-tests and ANOVA corrected for multiple comparisons.

In test [2] the test system is Fmr1 knockout (KO) or Wild Type (WT) mice. Nature of the test: Contextual fear conditioning (freezing). Type of test: in vivo, mouse. On the procedure: (§2) Fmr1 knockout mice (KO2) mice (The Dutch-Belgium Fragile X Consortium, 1994), initially obtained from the Jackson Laboratory, and wild type (WT) littermates were generated on a C57BL/6J background and repeatedly backcrossed onto a C57BL/6J background for more than eight generations. The Fmr1 knockout mice were housed in groups of the same genotype in a temperature and humidity controlled room with a 12-h light-dark cycle (lights on from 7 am to 7 pm; testing was conducted during light phase). Room temperature and humidity were recorded continuously in the holding room while food and water were available ad libitum. Testing was conducted on healthy Fmr1 knockout mice and their wild type littermates (N=10 mice per treatment group) at 2 or 6 months of age during the behavioral experiments. Mice were housed in commercial plastic cages and experiments were conducted in line with the requirements of the UK Animals (Scientific Procedures) Act, 1986. All experiments were conducted with experimenters blind to genotype and drug treatment. Animals were allowed a minimum acclimatization period of one week prior to performing any experiment. No prophylactic or therapeutic treatment was administered during the acclimatization period.
as §1
In the fear conditioning experiment, mice were placed into a novel environment (dark chamber) and received pairings of a cue and electric footshock (0.2 mA for 1 sec (Study 1) or 0.7 mA for 0.5 sec (Study 2)). […] Freezing time was defined as the time that the mice spent in immobile behavior, except for respiration. The data was expressed as the percentage of the test period. 24 hours after a training session, mice were tested for 5 min in the training chamber with no shock presentation and observed for freezing behavior.
Multivariate analysis of variance was employed to assess group differences across data. Repeated measures ANOVA were performed for behavioral data. Statistically significant effects in each ANOVA were followed with post hoc comparisons, using the Newman-Keuls test (Study 1) or the Tukey test (Study 2). A p value of less than 0.05 was considered significant.

In test [3] the test system is hippocampal slices from Fmr1 knockout or WT mice. Description: De novo hippocampal protein synthesis in vitro (SUnSET). The conditions noted are these: hippocampal slices from Fmr1 KO mice, 300 μM. Type of test: cell-based, mouse. Here is the method: as §1
Transverse hippocampal slices (400 μm) were obtained from 6-week-old Fmr1 knockout and WT mice. A protein synthesis assay was performed as previously described using the nonradioactive fluorescence-activated cell sorting-based assay, surface sensing of translation (SUnSET) method, which allows the monitoring and quantification of global protein synthesis in individual mammalian cells and in heterogeneous cell populations. (Hoeffer, 2011).

Test [4] relates to Fmr1 knockout (KO) or Wild Type (WT) mice. Description: Y-maze reference memory task (rewarded). The conditions noted are these: 2 months old, 150 mg/kg once daily 7 days, Study 1. It counts as in vivo, mouse. Here is the method: as §2, §1
Two tasks were implemented. The first was an unlearned assessment of spontaneous alternation between arm entries. […]

As for `Cc1ncc(CO)c(CO)c1O.O=C1CC[C@@H](C(=O)O)N1` [metadoxine, pyridoxol L,2-pyrrolidon-5 carboxylate], the “density of neuronal filopodia” value in test [1] was “reduced the aberrant increase in density of neuronal filopodia”. Further, the filopodia length entry in test [1] is “reversed this increase in filopodia length”. Besides, in test [1], the filopodia width entry is on record as “reversed the decrease in width”. Moreover, the “contextual fear conditioning, freezing (learning deficit)” value is given as “complete reversal” in test [2] (Fmr1 KO mice aged six months, 150 mg/kg ip once daily 7 days, Study 2); “partial reversal” in test [2] (Fmr1 KO mice, 2 months old, 100 mg/kg ip once daily 7 days, Study 1); “reversed the learning deficit effect in Fmr1 knockout mice, this reversal being partial; also recorded: fully rescued” in test [2] (Fmr1 KO mice, 2 months old, 150 mg/kg ip once daily 7 days, Study 1, 150 mg/kg); “completely reversed; also recorded: fully rescued” in test [2] (Fmr1 KO mice, 2 months old, 200 mg/kg ip once daily 7 days, Study 1, 200 mg/kg). Besides, the “contextual fear conditioning, freezing behavior” value in test [2] (Fmr1 KO mice, 2 months old, 150 mg/kg ip once daily 7 days, Study 2) is “the reversal was complete”; in test [2] (Fmr1 KO mice, 2 months old, 150 mg/kg oral once daily 7 days, Study 2) it was “the reversal was complete”; in test [2] (Fmr1 KO mice, 2 months old, 300 mg/kg oral once daily 7 days, Study 2), “the reversal was complete”; in test [2] (WT mice, 2 months old, 150 mg/kg ip or 150 and 300 mg/kg oral, 7 days, Study 2) it was “No effects were seen”. For the same molecule, the “contextual fear conditioning, freezing” value in test [2] (WT mice, 2 months old, 100, 150 or 200 mg/kg ip once daily 7 days, Study 1) is “no effect on WT mice”. Besides, the “basal de novo protein synthesis” value in test [3] is reported as “reduced protein synthesis rates in Fmr1 knockout mouse hippocampi. This effect was partial”. Also, the “Y-maze rewarded reference memory learning (appropriate arm entries)” value in test [4] (Fmr1 KO mice) is “reduced this deficit”. The “Y-maze rewarded reference memory learning” value in test [4] (WT mice) is given as “No Effect on WT Mice”.
